# Laboratory results reported in paper PMC8909834, “An Orally Bioavailable and Highly Efficacious Inhibitor of CDK9/FLT3 for the Treatment of Acute Myeloid Leukemia” (Cancers, 2022).
# How the values were obtained:
# Assay in all cases: Kinase Hotspot radiolabel assay
# Type in all cases: biochemical
# Conditions in all cases: read-out: % Residual Activity
# DYRK3 = target: T1, DYRK3 (Homo sapiens, UniProt O43781)
# T1 construct: purchased Reaction Biology Corporation (Kinase HotSpot)
# Protocol: (§1) Kinase assay. The ADP Glo^TM kinase assay (Promega, Madison, WI, USA) was used to assess the inhibition by CDDD11-8 of CDKs 1, 2, 4, 6, 7, and 9, as well as the mutant isoforms of FLT3. The assays were performed in accord with the manufacturer’s protocol (Promega) as described previously. Briefly, serial three-fold dilutions of CDDD11-8 were prepared in 100% DMSO from a 2 mM stock solution, followed by 1:40 dilution into Milli-Q water. Subsequently, 1 µL of each sample was incubated with 4 µL of kinase mixture containing a particular CDK enzyme and its substrate, standard kinase buffer [3 mM MgCl2, 50 mM HEPES-NaOH pH 7.5, 3 mM MnCl2, 3 µM Na-orthovanadate, 1 mM dithiothreitol (DTT)], kinase dilution buffer (containing 0.25 mg/mL PEG20,000, 50 mM HEPES-NaOH pH 7.5, 1 mM DTT), and ATP at 37 °C for 30 to 40 min. The final reaction mixture contained 0.5% DMSO in all samples, and the applied kinase concentrations were 1, 1, 10, 40, 20, and 50 nM for CDK1, 2, 4, 6, 7, and 9, respectively. The reaction was stopped by adding ADP-Glo reagent and the mixture was incubated further in the dark at room temperature for 40 min. As a final step, kinase detection reagent was added to each mixture and incubated at room temperature for 30 to 60 min. Luminescence was read using an EnVision® multilabel plate reader (PerkinElmer, Beaconsfield, UK), and half-maximum inhibitory concentrations (IC50) were calculated using a non-linear regression model with a variable slope, plotting log (inhibitor concentration) vs. response using the following formula: Ar%=Bottom+Top−Bottom/1+Inhibitor Concentration/IC50^HillSlope where the relative activity Ar (%) is the signal relative to the controls, IC50 is the half maximum concentration, Hillslope is the steepness of the dose-response curve, Top and Bottom are plateaus reflecting the maximum and minimum in responses on the Y-axis (GraphPad Prism version 7, San Diego, CA, USA). Ki values were calculated from the IC50 using the Cheng−Prusoff equation [32]. Extensive specificity assessment was carried out by Reaction Biology Corporation (Malvern, PA, USA) with 369 kinases using 1 µM CDDD11-8 concentration in a Kinase Hotspot radiolabel assay (for experimental details, please see (Reaction Biology https://www.reactionbiology.com/). Subsequently, Ki values were determined for kinases with greater than 90% inhibition.
# FGFR2 = target: T2, FGFR2 (Homo sapiens, UniProt P21802)
# T2 construct: purchased Reaction Biology Corporation (Kinase HotSpot)
# Protocol: as §1
# PAK1 = target: T3, PAK1 (Homo sapiens, UniProt Q13153)
# T3 construct: purchased Reaction Biology Corporation (Kinase HotSpot)
# Protocol: as §1
# TNK1 = target: T4, TNK1 (Homo sapiens, UniProt Q13470)
# T4 construct: purchased Reaction Biology Corporation (Kinase HotSpot)
# Protocol: as §1
# DLK/MAP3K12 = target: T5, DLK/MAP3K12 (Homo sapiens, UniProt Q12852)
# T5 construct: purchased Reaction Biology Corporation (Kinase HotSpot)
# Protocol: as §1
# ULK3 = target: T6, ULK3 (Homo sapiens, UniProt Q6PHR2)
# T6 construct: purchased Reaction Biology Corporation (Kinase HotSpot)
# Protocol: as §1
# ALK5/TGFBR1 = target: T7, ALK5/TGFBR1 (Homo sapiens, UniProt P36897)
# T7 construct: purchased Reaction Biology Corporation (Kinase HotSpot)
# Protocol: as §1
# COT1/MAP3K8 = target: T8, COT1/MAP3K8 (Homo sapiens, UniProt P41279)
# T8 construct: purchased Reaction Biology Corporation (Kinase HotSpot)
# Protocol: as §1
# SNRK = target: T9, SNRK (Homo sapiens, UniProt Q9NRH2)
# T9 construct: purchased Reaction Biology Corporation (Kinase HotSpot)
# Protocol: as §1
# NEK11 = target: T10, NEK11 (Homo sapiens, UniProt Q8NG66)
# T10 construct: purchased Reaction Biology Corporation (Kinase HotSpot)
# Protocol: as §1
# ROCK2 = target: T11, ROCK2 (Homo sapiens, UniProt O75116)
# T11 construct: purchased Reaction Biology Corporation (Kinase HotSpot)
# Protocol: as §1
# PAK5 = target: T12, PAK5 (Homo sapiens, UniProt Q9P286)
# T12 construct: purchased Reaction Biology Corporation (Kinase HotSpot)
# Protocol: as §1
# SRPK1 = target: T13, SRPK1 (Homo sapiens, UniProt Q96SB4)
# T13 construct: purchased Reaction Biology Corporation (Kinase HotSpot)
# Protocol: as §1
# CAMK1a = target: T14, CAMK1a (Homo sapiens, UniProt Q14012)
# T14 construct: purchased Reaction Biology Corporation (Kinase HotSpot)
# Protocol: as §1
# HGK/MAP4K4 = target: T15, HGK/MAP4K4 (Homo sapiens, UniProt O95819)
# T15 construct: purchased Reaction Biology Corporation (Kinase HotSpot)
# Protocol: as §1
# MNK1 = target: T16, MNK1 (Homo sapiens, UniProt Q9BUB5)
# T16 construct: purchased Reaction Biology Corporation (Kinase HotSpot)
# Protocol: as §1
# MSK2/RPS6KA4 = target: T17, MSK2/RPS6KA4 (Homo sapiens, UniProt O75676)
# T17 construct: purchased Reaction Biology Corporation (Kinase HotSpot)
# Protocol: as §1
# IRAK1 = target: T18, IRAK1 (Homo sapiens, UniProt P51617)
# T18 construct: purchased Reaction Biology Corporation (Kinase HotSpot)
# Protocol: as §1
# IR = target: T19, IR (Homo sapiens, UniProt P06213)
# T19 construct: purchased Reaction Biology Corporation (Kinase HotSpot)
# Protocol: as §1
# TTBK1 = target: T20, TTBK1 (Homo sapiens, UniProt Q5TCY1)
# T20 construct: purchased Reaction Biology Corporation (Kinase HotSpot)
# Protocol: as §1
# PLK4/SAK = target: T21, PLK4/SAK (Homo sapiens, UniProt O00444)
# T21 construct: purchased Reaction Biology Corporation (Kinase HotSpot)
# Protocol: as §1
# ERK1 = target: T22, ERK1 (Homo sapiens, UniProt P27361)
# T22 construct: purchased Reaction Biology Corporation (Kinase HotSpot)
# Protocol: as §1
# CK1a1 = target: T23, CK1a1 (Homo sapiens, UniProt P48729)
# T23 construct: purchased Reaction Biology Corporation (Kinase HotSpot)
# Protocol: as §1
# CLK1 = target: T24, CLK1 (Homo sapiens, UniProt P49759)
# T24 construct: purchased Reaction Biology Corporation (Kinase HotSpot)
# Protocol: as §1
# IRAK4 = target: T25, IRAK4 (Homo sapiens, UniProt Q9NWZ3)
# T25 construct: purchased Reaction Biology Corporation (Kinase HotSpot)
# Protocol: as §1
# CAMK2b = target: T26, CAMK2b (Homo sapiens, UniProt Q13554)
# T26 construct: purchased Reaction Biology Corporation (Kinase HotSpot)
# Protocol: as §1
# EPHA1 = target: T27, EPHA1 (Homo sapiens, UniProt P21709)
# T27 construct: purchased Reaction Biology Corporation (Kinase HotSpot)
# Protocol: as §1
# ITK = target: T28, ITK (Homo sapiens, UniProt Q08881)
# T28 construct: purchased Reaction Biology Corporation (Kinase HotSpot)
# Protocol: as §1
# TLK2 = target: T29, TLK2 (Homo sapiens, UniProt Q86UE8)
# T29 construct: purchased Reaction Biology Corporation (Kinase HotSpot)
# Protocol: as §1
# GRK3 = target: T30, GRK3 (Homo sapiens, UniProt P35626)
# T30 construct: purchased Reaction Biology Corporation (Kinase HotSpot)
# Protocol: as §1
# T10 sequence (Q8NG66 whole entry): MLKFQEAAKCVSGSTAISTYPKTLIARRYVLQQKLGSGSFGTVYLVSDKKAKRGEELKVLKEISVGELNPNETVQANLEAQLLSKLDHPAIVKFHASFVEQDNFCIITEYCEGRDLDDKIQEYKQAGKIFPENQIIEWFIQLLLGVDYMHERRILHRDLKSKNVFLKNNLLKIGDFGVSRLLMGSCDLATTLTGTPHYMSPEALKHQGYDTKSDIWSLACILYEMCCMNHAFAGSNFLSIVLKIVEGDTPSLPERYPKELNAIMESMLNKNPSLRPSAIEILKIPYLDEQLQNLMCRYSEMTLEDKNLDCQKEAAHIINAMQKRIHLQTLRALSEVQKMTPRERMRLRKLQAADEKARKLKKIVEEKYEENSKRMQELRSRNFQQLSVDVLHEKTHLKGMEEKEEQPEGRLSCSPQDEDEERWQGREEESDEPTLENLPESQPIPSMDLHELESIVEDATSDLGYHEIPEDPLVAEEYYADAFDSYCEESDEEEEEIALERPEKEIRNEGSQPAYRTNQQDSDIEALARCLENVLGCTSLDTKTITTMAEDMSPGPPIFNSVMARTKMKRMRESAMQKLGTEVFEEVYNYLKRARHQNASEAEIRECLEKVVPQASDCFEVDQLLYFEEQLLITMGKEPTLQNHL
# T16 sequence (Q9BUB5 whole entry): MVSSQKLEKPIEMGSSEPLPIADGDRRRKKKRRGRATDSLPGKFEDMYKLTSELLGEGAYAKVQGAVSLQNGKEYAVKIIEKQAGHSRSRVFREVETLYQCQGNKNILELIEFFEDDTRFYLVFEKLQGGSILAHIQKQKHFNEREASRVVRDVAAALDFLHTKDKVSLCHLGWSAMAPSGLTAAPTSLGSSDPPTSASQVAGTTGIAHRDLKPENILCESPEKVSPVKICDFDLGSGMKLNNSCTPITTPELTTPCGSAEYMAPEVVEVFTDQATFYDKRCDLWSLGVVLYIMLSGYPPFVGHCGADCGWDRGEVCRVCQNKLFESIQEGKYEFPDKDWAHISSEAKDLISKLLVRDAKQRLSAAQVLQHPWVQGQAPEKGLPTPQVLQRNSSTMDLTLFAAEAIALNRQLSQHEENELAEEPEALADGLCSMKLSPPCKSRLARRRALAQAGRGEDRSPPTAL
# T1 sequence (O43781 whole entry): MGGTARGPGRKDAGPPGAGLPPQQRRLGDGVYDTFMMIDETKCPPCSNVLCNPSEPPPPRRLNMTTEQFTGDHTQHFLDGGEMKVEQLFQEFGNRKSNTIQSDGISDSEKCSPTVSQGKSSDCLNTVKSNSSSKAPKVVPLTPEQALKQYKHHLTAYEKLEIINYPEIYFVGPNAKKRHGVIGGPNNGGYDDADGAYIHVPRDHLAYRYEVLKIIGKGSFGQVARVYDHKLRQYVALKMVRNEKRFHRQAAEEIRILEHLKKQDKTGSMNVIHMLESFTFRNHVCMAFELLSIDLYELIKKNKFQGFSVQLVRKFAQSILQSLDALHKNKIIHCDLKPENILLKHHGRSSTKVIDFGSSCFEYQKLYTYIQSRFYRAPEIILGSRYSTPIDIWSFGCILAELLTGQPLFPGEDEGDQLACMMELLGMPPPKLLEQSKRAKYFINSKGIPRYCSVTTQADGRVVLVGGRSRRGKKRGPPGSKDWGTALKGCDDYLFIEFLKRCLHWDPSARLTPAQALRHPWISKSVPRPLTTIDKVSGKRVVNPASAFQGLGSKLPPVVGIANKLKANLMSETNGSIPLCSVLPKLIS
# T18 sequence (P51617 whole entry): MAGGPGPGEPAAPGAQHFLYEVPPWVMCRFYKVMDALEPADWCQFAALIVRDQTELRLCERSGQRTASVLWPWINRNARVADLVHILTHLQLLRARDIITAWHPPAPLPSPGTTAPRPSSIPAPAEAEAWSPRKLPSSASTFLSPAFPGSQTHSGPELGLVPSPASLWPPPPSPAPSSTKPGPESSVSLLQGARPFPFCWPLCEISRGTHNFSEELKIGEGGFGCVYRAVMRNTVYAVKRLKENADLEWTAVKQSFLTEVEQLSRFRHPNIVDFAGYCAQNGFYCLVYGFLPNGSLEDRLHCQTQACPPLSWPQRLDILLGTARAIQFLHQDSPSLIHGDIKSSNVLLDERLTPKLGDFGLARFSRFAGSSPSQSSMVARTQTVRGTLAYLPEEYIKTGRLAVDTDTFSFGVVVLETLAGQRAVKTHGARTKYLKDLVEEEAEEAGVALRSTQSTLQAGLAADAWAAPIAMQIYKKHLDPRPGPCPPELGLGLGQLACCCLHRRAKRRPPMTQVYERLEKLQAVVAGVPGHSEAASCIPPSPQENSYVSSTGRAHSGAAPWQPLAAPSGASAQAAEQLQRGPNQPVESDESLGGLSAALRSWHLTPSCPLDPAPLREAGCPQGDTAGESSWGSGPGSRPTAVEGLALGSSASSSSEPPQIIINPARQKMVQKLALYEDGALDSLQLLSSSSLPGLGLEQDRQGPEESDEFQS
# T11 sequence (O75116 whole entry): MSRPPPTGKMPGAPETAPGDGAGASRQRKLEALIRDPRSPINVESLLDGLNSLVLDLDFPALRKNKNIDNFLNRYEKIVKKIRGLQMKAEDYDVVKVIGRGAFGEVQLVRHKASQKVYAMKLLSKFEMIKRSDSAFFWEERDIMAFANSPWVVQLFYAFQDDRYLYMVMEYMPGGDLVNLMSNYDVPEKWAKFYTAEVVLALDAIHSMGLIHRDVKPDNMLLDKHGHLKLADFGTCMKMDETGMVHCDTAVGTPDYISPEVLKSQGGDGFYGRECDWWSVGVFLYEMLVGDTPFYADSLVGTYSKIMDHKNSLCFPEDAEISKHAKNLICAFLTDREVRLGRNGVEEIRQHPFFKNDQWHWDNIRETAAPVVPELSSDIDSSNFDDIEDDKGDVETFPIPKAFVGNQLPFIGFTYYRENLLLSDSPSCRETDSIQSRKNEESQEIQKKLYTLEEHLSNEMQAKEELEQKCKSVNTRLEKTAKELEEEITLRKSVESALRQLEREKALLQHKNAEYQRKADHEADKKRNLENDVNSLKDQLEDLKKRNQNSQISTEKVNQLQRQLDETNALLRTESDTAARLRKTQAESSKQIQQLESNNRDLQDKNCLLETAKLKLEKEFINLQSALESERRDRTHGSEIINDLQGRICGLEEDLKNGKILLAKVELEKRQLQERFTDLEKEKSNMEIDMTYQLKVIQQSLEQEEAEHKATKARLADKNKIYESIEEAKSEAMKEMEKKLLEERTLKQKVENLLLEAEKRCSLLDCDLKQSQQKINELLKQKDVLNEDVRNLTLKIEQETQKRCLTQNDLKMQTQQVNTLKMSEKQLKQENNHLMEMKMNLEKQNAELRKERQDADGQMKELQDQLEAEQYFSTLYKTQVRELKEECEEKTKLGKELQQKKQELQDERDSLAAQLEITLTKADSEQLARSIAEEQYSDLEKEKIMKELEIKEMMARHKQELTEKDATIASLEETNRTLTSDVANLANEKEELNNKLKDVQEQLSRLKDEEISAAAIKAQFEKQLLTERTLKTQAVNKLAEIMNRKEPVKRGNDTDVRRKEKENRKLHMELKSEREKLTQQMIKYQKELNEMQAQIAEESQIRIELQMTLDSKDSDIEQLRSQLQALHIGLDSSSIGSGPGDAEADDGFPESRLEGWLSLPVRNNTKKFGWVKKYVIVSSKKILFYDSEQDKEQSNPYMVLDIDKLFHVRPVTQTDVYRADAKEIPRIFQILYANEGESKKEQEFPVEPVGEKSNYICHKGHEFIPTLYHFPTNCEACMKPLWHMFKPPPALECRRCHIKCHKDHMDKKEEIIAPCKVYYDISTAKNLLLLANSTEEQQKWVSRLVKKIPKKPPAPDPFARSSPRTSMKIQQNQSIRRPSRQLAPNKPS
# T9 sequence (Q9NRH2 whole entry): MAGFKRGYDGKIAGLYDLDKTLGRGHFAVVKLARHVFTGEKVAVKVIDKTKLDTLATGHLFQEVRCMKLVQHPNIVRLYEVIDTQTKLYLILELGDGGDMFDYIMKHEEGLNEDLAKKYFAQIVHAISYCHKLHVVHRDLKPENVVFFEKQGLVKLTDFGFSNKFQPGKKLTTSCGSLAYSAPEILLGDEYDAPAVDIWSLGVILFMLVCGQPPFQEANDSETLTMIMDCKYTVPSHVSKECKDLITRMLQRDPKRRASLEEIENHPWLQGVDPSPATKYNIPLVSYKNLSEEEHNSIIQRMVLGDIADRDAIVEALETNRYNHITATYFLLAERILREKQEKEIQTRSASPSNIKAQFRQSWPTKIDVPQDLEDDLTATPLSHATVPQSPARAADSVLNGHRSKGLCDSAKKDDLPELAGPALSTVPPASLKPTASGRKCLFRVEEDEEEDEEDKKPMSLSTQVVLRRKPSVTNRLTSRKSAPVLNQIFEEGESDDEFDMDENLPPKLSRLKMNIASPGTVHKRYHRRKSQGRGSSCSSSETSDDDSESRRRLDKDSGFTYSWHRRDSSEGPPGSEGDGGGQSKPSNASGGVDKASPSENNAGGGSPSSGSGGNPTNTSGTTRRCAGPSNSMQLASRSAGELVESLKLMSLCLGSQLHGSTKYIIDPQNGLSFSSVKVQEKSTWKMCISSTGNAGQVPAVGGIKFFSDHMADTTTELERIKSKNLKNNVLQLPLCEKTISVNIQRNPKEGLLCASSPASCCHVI
# T22 sequence (P27361 whole entry): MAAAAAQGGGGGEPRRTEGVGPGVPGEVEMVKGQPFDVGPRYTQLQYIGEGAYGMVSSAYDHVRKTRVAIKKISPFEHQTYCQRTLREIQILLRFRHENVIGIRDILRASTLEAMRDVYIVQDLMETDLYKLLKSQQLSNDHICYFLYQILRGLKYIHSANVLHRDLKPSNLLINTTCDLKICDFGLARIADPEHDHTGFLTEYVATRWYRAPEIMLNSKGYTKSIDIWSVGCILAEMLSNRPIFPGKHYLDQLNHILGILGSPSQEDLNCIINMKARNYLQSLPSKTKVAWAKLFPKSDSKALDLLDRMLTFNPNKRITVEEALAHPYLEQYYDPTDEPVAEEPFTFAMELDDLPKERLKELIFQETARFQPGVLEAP
structure (smiles),measurement,setting,value
Cc1cnc(N[C@H]2CC[C@H](N)CC2)nc1-c1cnc2ccc(-c3ccccc3)cn12 [CDDD11-8],remaining activity at 1 µM,DYRK3,23.2%
same,remaining activity at 1 µM,FGFR2,72.5%
same,remaining activity at 1 µM,PAK1,106%
same,remaining activity at 1 µM,TNK1,55.4%
same,remaining activity at 1 µM,DLK/MAP3K12,45.8%
same,remaining activity at 1 µM,ULK3,82.8%
same,remaining activity at 1 µM,ALK5/TGFBR1,93.9%
same,remaining activity at 1 µM,COT1/MAP3K8,101%
same,remaining activity at 1 µM,SNRK,100%
same,remaining activity at 1 µM,NEK11,100%
same,remaining activity at 1 µM,ROCK2,88.9%
same,remaining activity at 1 µM,PAK5,86.2%
same,remaining activity at 1 µM,SRPK1,94%
same,remaining activity at 1 µM,CAMK1a,80.7%
same,remaining activity at 1 µM,HGK/MAP4K4,32.8%
same,remaining activity at 1 µM,MNK1,76.4%
same,remaining activity at 1 µM,MSK2/RPS6KA4,97.4%
same,remaining activity at 1 µM,IRAK1,91.9%
same,remaining activity at 1 µM,IR,101%
same,remaining activity at 1 µM,TTBK1,89.5%
same,remaining activity at 1 µM,PLK4/SAK,89.3%
same,remaining activity at 1 µM,ERK1,97.3%
same,remaining activity at 1 µM,CK1a1,102%
same,remaining activity at 1 µM,CLK1,28.9%
same,remaining activity at 1 µM,IRAK4,59.2%
same,remaining activity at 1 µM,CAMK2b,23.5%
same,remaining activity at 1 µM,EPHA1,93.1%
same,remaining activity at 1 µM,ITK,87.5%
same,remaining activity at 1 µM,TLK2,97.8%
same,remaining activity at 1 µM,GRK3,91.9%
